From the supplement of paper PMC10307832

Compound: COc1cc(Nc2ncc(F)c(Nc3ccc4c(n3)NC(=O)C(C)(C)O4)n2)cc(OC)c1OC [R406] + O=C(c1cc(Cc2n[nH]c(=O)c3ccccc23)ccc1F)N1CCN(C(=O)C2CC2)CC1 [Olaparib] (partner 8 µM)
Experiment: relative viability (nuclei count vs DMSO), 5 days (fraction); higher = more cells survive
Settings: first compound 2.53 µM
Method in brief: (§1)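 Lung cancer cell lines in 1536-well plates were dosed by pin tool the day after seeding, either with one drug alone or with a fixed anchor-drug dose plus five library-drug doses (not always all listed) in √10 steps. After 5 days, cells were fixed and their nuclei stained in one step (final 0.05% Triton X-100, 1% formaldehyde, 1 ug/ml Hoechst), then counted on 4× images. Relative viability is the nuclei count in treated wells divided by that in vehicle wells. Values are medians of duplicate plates.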

Cell Line | relative viability
ChaGo-K-1 | 0.422
NCI-H1793 | 0.356
NCI-H2405 | 0.748
HOP-62 | 0.517
A549 | 0.0554
SK-MES-1 | 0.327
SW 900 | 0.492
NCI-H2009 | 0.489
NCI-H520 | 0.194
SW 1573 | 0.399
NCI-H1299 | 1.05
CAL-12T | 0.687
NCI-H2228 | 0.341
NCI-H2023 | 0.4
NCI-H1648 | 0.886
SK-LU-1 | 0.249
NCI-H661 | 0.697

Same assay, conditions: first compound 8 µM

Cell Line | relative viability
NCI-H522 | 0.511
NCI-H2342 | 0.439
NCI-H838 | 0.142
NCI-H1650 | 0.647
EBC-1 | 0.369
NCI-H1703 | 0.124
NCI-H1993 | 0.918
NCI-H441 | 0.322
PC-14 | 0.0748
LCLC-103H | 0.302
NCI-H596 | 0.377
NCI-H2126 | 0.557
EMC-BAC-2 | 0.307
NCI-H2085 | 0.458
Calu-6 | 0.271
HCC-366 | 0.0913
NCI-H1666 | 0.687
NCI-H647 | 0.0598
LK-2 | 0.305
NCI-H2087 | 0.32
NCI-H358 | 0.209
NCI-H2170 | 0.488

Cell Line | relative viability
H3255 | 0.475
COR-L23 | 0.209
COR-L 105 | 0.602
IA-LM | 0.882
LOU-NH91 | 0.478
ChaGo-K-1 | 0.296
NCI-H1793 | 0.144
NCI-H2405 | 0.306
HOP-62 | 0.495
A549 | 0.306
SK-MES-1 | 0.174
SW 900 | 0.115
NCI-H2009 | 0.546
NCI-H520 | 0.126
SW 1573 | 0.158
NCI-H1299 | 0.731
CAL-12T | 0.55
NCI-H2228 | 0.238
NCI-H2023 | 0.163
NCI-H1648 | 0.884
SK-LU-1 | 0.213
NCI-H661 | 0.591

Compound: O=C(/C=C/c1cccnc1)NCCCCC1CCN(C(=O)c2ccccc2)CC1 [Daporinad] + CS(=O)(=O)N1CCN(Cc2cc3nc(-c4cccc5[nH]ncc45)nc(N4CCOCC4)c3s2)CC1 [Pictilisib] (partner 1 µM)
Experiment: as above
Settings: first compound 0.0005 µM
Method in brief: as §1

Cell Line | relative viability
NCI-H838 | 0.507
NCI-H1650 | 0.503
EBC-1 | 0.335
NCI-H1703 | 0.236
NCI-H1993 | 0.925
NCI-H441 | 0.435
PC-14 | 0.656
LCLC-103H | 0.693
NCI-H596 | 0.402
NCI-H2126 | 0.529
EMC-BAC-2 | 0.628
NCI-H2085 | 0.438
Calu-6 | 0.917
HCC-366 | 0.14
NCI-H1666 | 0.508
NCI-H647 | 0.403
LK-2 | 0.605
NCI-H2087 | 0.877
NCI-H358 | 0.266
NCI-H2170 | 0.315

Cell Line | relative viability
H3255 | 0.46
COR-L23 | 0.777
COR-L 105 | 0.348
IA-LM | 0.357
LOU-NH91 | 0.528
ChaGo-K-1 | 0.774
NCI-H1793 | 0.221
NCI-H2405 | 0.505
A549 | 0.548
SK-MES-1 | 0.296
NCI-H2009 | 0.784
NCI-H520 | 0.346
SW 1573 | 0.524
NCI-H1299 | 0.736
CAL-12T | 0.305
NCI-H2228 | 0.342
NCI-H2023 | 0.252
NCI-H1563 | 0.639
SK-LU-1 | 0.482
NCI-H661 | 0.412

Same assay, conditions: first compound 0.001581 µM

Cell Line | relative viability
NCI-H838 | 0.559
NCI-H1650 | 0.727
EBC-1 | 0.43
NCI-H1703 | 0.283
NCI-H1993 | 0.684
NCI-H441 | 0.631
PC-14 | 0.726
LCLC-103H | 0.649
NCI-H596 | 0.371
NCI-H2126 | 0.516
EMC-BAC-2 | 0.567
NCI-H2085 | 0.463
Calu-6 | 0.907
HCC-366 | 0.167
NCI-H1666 | 0.482
NCI-H647 | 0.556
LK-2 | 0.689
NCI-H2087 | 1.1
NCI-H358 | 0.405
NCI-H2170 | 0.331

Cell Line | relative viability
H3255 | 0.488
COR-L23 | 0.952
COR-L 105 | 0.364
IA-LM | 0.321
LOU-NH91 | 0.568
ChaGo-K-1 | 0.64
NCI-H1793 | 0.354
NCI-H2405 | 0.485
HOP-62 | 0.846
A549 | 0.529
SK-MES-1 | 0.4
NCI-H2009 | 1
NCI-H520 | 0.29
SW 1573 | 0.552
NCI-H1299 | 0.809
NCI-H2228 | 0.358
NCI-H2023 | 0.3
NCI-H1563 | 0.642
SK-LU-1 | 0.601
NCI-H661 | 0.376

Same assay, conditions: first compound 0.005 µM

Cell Line | relative viability
NCI-H838 | 0.592
NCI-H1650 | 0.715
EBC-1 | 0.37
NCI-H1703 | 0.259
NCI-H1993 | 0.798
NCI-H441 | 0.588
PC-14 | 0.876
LCLC-103H | 0.619
NCI-H596 | 0.421
NCI-H2126 | 0.485
EMC-BAC-2 | 0.485
NCI-H2085 | 0.526
Calu-6 | 0.81
HCC-366 | 0.152
NCI-H1666 | 0.456
NCI-H647 | 0.489
LK-2 | 0.46
NCI-H2087 | 0.951
